Experimental data from ChEMBL document CHEMBL1133242, “Selective alpha1a adrenergic receptor antagonists based on 4-aryl-3,4-dihydropyridine-2-ones” (Bioorg Med Chem Lett, 2000).

Legend:
[1] = biological target: T1, Alpha-2B adrenergic receptor (Homo sapiens, UniProt P18089); test: […] inhibitory effect against alpha-2b Adrenergic receptor
T1 sequence (P18089 whole entry): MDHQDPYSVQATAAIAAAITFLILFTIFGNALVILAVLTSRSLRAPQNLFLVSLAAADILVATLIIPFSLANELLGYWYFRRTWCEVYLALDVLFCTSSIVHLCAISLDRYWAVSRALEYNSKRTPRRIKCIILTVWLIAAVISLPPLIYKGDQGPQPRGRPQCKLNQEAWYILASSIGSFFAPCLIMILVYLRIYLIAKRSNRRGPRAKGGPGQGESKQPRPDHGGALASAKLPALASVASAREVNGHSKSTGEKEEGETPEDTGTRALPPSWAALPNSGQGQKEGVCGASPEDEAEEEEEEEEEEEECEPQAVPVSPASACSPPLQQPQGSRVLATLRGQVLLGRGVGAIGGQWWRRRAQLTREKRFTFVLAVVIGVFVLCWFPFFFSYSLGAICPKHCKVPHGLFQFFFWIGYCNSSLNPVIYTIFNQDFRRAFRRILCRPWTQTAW

[2] = biological target: T2, Alpha-1D adrenergic receptor (Homo sapiens, UniProt P25100); test: In vitro antagonism at Alpha-1D adrenergic receptor; assay type: functional
T2 sequence (P25100 whole entry): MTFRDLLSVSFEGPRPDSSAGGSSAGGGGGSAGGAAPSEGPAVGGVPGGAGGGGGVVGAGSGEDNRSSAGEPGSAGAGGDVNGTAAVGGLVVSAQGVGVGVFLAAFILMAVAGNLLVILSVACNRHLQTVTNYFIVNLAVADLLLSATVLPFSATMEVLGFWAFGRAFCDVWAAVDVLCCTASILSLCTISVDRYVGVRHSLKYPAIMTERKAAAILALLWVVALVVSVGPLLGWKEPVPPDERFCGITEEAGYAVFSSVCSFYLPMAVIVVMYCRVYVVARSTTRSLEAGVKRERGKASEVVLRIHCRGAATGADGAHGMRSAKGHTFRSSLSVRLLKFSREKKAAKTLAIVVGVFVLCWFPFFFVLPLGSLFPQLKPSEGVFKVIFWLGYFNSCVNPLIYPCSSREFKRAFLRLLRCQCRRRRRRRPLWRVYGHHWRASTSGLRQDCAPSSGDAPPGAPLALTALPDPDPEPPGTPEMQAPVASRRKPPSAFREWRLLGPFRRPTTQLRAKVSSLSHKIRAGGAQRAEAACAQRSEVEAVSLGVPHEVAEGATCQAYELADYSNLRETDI

[3] = biological target: T3, Alpha-2C adrenergic receptor (Homo sapiens, UniProt P18825); test: […] inhibitory effect against Alpha-2C adrenergic receptor
T3 sequence (P18825 whole entry): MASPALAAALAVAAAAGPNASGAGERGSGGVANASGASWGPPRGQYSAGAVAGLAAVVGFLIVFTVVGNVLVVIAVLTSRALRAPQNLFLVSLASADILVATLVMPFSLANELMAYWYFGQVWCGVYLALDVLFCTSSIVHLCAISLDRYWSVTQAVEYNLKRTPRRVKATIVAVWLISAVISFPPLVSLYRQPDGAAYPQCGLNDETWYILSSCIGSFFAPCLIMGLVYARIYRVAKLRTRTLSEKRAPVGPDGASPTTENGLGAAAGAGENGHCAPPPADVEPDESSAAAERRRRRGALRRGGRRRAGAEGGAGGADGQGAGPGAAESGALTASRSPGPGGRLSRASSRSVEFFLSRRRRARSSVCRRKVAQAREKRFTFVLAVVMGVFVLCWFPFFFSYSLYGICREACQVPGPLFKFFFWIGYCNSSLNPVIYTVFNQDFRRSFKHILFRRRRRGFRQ

[4] = biological target: T4, Alpha-1A adrenergic receptor (Homo sapiens, UniProt P35348); test: In vitro antagonism at Alpha-1A adrenergic receptor; assay type: functional
T4 sequence (P35348 whole entry): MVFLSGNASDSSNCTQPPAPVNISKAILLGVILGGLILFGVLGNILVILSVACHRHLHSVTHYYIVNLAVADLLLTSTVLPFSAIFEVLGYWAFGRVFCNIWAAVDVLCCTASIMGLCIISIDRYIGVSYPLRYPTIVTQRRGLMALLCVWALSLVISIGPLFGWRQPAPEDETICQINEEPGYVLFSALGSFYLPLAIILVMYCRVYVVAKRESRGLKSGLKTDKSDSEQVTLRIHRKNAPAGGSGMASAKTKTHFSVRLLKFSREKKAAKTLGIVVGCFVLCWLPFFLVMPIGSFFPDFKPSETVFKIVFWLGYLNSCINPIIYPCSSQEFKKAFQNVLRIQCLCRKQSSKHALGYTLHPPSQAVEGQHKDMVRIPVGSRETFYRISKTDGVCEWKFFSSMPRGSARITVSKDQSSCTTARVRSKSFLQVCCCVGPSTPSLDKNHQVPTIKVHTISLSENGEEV

[5] = biological target: T5, Alpha-1B adrenergic receptor (Homo sapiens, UniProt P35368); test: In vitro antagonism at Alpha-1B adrenergic receptor; assay type: functional
T5 sequence (P35368 whole entry): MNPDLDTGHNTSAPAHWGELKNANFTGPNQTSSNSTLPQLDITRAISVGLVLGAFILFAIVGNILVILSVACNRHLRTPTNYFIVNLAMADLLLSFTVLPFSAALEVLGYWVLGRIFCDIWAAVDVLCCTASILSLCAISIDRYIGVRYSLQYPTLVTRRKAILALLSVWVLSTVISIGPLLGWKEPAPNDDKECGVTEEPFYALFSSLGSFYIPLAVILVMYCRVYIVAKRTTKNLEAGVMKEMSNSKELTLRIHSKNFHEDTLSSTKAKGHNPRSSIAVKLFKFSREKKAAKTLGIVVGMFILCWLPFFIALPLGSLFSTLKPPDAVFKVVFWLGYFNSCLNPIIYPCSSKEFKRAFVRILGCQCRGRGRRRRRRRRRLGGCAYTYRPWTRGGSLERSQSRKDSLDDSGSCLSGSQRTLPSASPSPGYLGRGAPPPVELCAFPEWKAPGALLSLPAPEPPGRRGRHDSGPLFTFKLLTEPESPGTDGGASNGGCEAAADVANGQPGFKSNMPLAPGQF

[6] = biological target: Histamine H1 receptor (Homo sapiens, UniProt P35367); test: Selectivity screen against human Histamine H1 receptor
Sequence of Histamine H1 receptor (P35367 whole entry): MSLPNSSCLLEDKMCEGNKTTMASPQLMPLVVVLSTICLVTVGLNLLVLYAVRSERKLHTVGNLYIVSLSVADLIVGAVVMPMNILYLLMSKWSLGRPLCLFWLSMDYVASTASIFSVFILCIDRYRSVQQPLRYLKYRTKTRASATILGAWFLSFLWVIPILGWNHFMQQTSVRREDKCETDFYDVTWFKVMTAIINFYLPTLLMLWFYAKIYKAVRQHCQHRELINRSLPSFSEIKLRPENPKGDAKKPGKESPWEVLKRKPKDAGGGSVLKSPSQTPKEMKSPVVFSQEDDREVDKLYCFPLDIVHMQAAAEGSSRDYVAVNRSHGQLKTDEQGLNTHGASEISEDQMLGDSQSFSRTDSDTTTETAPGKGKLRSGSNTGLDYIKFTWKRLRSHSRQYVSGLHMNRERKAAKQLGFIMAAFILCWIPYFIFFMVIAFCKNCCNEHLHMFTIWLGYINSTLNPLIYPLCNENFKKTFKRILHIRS

[7] = organism: Rattus norvegicus; test: Dose required to inhibit the prostate contractile response by 50% after challenge with selective alpha-1a agonist A61603 and duration of action was 1.5h in an in situ rat prostate model; assay type: functional, Prostate gland
[8] = biological target: T6, Alpha-2A adrenergic receptor (Homo sapiens, UniProt P08913); test: […] inhibitory effect against Alpha-2A adrenergic receptor
T6 sequence (P08913 whole entry): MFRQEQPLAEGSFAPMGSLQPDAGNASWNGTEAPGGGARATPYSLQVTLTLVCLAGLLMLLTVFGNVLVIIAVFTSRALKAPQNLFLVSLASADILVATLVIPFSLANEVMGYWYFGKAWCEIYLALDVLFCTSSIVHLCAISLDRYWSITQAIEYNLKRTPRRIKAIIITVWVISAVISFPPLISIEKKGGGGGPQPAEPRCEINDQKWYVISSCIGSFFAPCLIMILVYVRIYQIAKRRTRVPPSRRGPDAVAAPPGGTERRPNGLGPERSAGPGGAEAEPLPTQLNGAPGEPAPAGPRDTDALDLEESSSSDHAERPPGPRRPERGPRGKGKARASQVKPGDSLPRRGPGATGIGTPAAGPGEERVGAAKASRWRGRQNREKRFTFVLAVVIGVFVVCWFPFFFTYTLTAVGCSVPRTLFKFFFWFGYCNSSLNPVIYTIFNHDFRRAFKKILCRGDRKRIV

[9] = t1/2 value in rat; assay type: ADME, organism-based; settings: in vivo
[10] = organism: Rattus norvegicus; test: Dose required to inhibit the prostate contractile response by 50% after challenge with selective alpha-1a agonist A61603 and duration of action was 4 hr in an in situ rat prostate model; assay type: functional, Prostate gland
[11] = organism: Rattus norvegicus; test: Dose required to inhibit the prostate contractile response by 50% after challenge with selective alpha-1a agonist A61603 in an in situ rat prostate model; assay type: functional, Prostate gland
[12] = organism: Rattus norvegicus; test: Dose required to inhibit the prostate contractile response by 50% after challenge with selective alpha-1a agonist A61603 and duration of action was 2.5h in an in situ rat prostate model; assay type: functional, Prostate gland
[13] = Percent bioavailability in dog; assay type: ADME, organism-based, Canis lupus familiaris; settings: in vivo, read-out: Bioavailabiility
[14] = organism: Rattus norvegicus; test: Dose required to inhibit the prostate contractile response by 50% after challenge with selective alpha-1a agonist A61603 and duration of action was 3.5h in an in situ rat prostate model; assay type: functional, Prostate gland

Row | SMILES | Ki [1] | Ki [2] | Ki [3] | Ki [4] | Ki [5] | Ki [6] | Ki [8] | half-life [9] | bioavailability [13] | AD50 [7] | AD50 [10] | AD50 [11] | AD50 [12] | AD50 [14]
1 | CC1=C(C(=O)NCCCN2CCC(C#N)(c3ccc(F)cc3F)CC2)[C@@H](c2ccc(F)c(F)c2)CC(=O)N1 | 531 nM | 588 nM | 2000 nM | 1 nM | 805 nM | 108 nM | 1970 nM |  |  | 17 µg/kg |  |  |  | 
2 | CC1=C(C(=O)NCCCN2CCC(C#N)(c3ccc(F)cc3)CC2)[C@@H](c2ccc(F)c(F)c2)CC(=O)N1C | 776 nM | 880 nM | 1100 nM | 1.9 nM | 425 nM | 355 nM | 1860 nM |  |  |  |  | 25 µg/kg |  | 
3 | CC1=C(C(=O)NCCCN2CCC(C#N)(c3ccccc3C#N)CC2)[C@@H](c2ccc(F)c(F)c2)CC(=O)N1C |  | > 5000 nM |  | 13 nM | > 2000 nM |  |  |  |  |  |  |  |  | 
4 | CC1=C(C(=O)NCC(C)CN2CCC(C#N)(c3ccccn3)CC2)[C@@H](c2ccc(F)c(F)c2)CC(=O)N1 (stereo not given in full) |  | > 5000 nM |  | 42 nM | > 2000 nM |  |  |  |  |  |  |  |  | 
5 | CCOc1ccccc1OCCN[C@H](C)Cc1ccc(OC)c(S(N)(=O)=O)c1 [TAMSULOSIN] |  |  |  |  |  |  |  |  |  |  |  |  |  | 3 µg/kg

The remaining molecules from weak to strong by Ki [2], led by results:

Row | Ki [1] | Ki [2] | Ki [3] | Ki [4] | Ki [5] | Ki [6] | Ki [8] | half-life [9] | bioavailability [13] | SMILES | AD50 [7] | AD50 [10] | AD50 [11] | AD50 [12] | AD50 [14]
6 | 288 nM | 590 nM | 3850 nM | 0.8 nM | 366 nM | 398 nM | 4520 nM | 1.4 h |  | CC1=C(C(=O)NCCCN2CCC(c3ccc(F)cc3C#N)CC2)[C@@H](c2ccc(F)c(F)c2)CC(=O)N1C |  | 9 µg/kg |  |  | 
7 |  | 250 nM |  | 0.7 nM | 54 nM |  |  |  |  | CC1=C(C(=O)NCCCN2CCC(c3ccc(F)cc3)CC2)[C@@H](c2ccc(F)c(F)c2)CC(=O)N1C |  |  |  |  | 
8 | 145 nM | 150 nM | 1480 nM | 0.2 nM | 100 nM | 58 nM | 1290 nM | 4.8 h | 34% | CC1=C(C(=O)NCCCN2CCC(c3ccc(F)cc3C#N)CC2)[C@@H](c2ccc(F)c(F)c2)CC(=O)N1 |  |  |  | 5 µg/kg | 
